Test results from US9416141B2 (University of Washington through its Center for …, priority 2012, dated 2016).
Counter-ions that a name gives are not always drawn.

Tested on: hair cells
Assay: Hair cell toxicity assay in zebrafish (neomycin-induced hair cell death, DASPEI staining of neuromasts)
Type: in vivo
Settings: Danio rerio; for Emax at 2.8 µM: maximum observed @ 2.8 μM test compound; for EC50: zebrafish larvae 5-7 dpf, 1 h pre-treatment, then 200 micromolar neomycin + test compound 30 min, read-out: HC50 (concentration that would produce 50% hair cell survival); for Emax at 25 µM: maximum observed @ 25 μM test compound; for Emax at 8.3 µM: maximum observed @ 8.3 μM test compound
How it was run: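 Hair cell survival, as % of untreated controls, came from DASPEI scoring (0-2 each, ten neuromasts on one side) in 5-7 dpf larvae. These had 1 h compound pre-exposure (0.010-25 μM), then 200 μM neomycin with compound for 30 min. HCmax is peak protection; HC50 interpolated between flanking concentrations only when ≥50% survive.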

[1] = 200 micromolar neomycin, read-out: Max HC Protection (HCmax, % hair cell survival)

| Structure (SMILES) | EC50 | Emax at 25 µM [1] | further results |
| --- | --- | --- | --- |
| CC(C)(C)OC(=O)CC[N+]1(C)CCc2c(sc(NC(=O)Nc3ccc(Cl)cc3)c2C(N)=O)C1 (stereo not shown) [Example 151, 6-(3-tert-Butoxy-3-oxopropyl)-3-carbamoyl-2-[3-(4-chlorophenyl)ureido]-6-methyl-4,5,6,7-tetrahydrothieno[2,3-c]pyridin-6-ium iodide] | < 1000 nM | – | Emax at 2.8 µM [1]: 105% |
| C[N+]1(C2CCOCC2)CCc2c(sc(NC(=O)Nc3ccc(Cl)cc3)c2C(N)=O)C1 (stereo not shown) [Example 143, 3-Carbamoyl-2-[3-(4-chlorophenyl)ureido]-6-methyl-6-(tetrahydro-2H-pyran-4-yl)-4,5,6,7-tetrahydrothieno[2,3-c]pyridin-6-ium iodide] | 1000 to 10000 nM | 96% | – |
| CC(C)CN1CCc2c(sc(NC(=O)Nc3ccc(Cl)c4ccccc34)c2C(N)=O)C1 [Example 39, 2-[3-(4-Chloronaphthalen-1-yl)ureido]-6-isobutyl-4,5,6,7-tetrahydrothieno[2,3-c]pyridine-3-carboxamide hydrochloride] | > 10000 nM | 56% | – |
| CCN1CCc2c(sc(NC(=O)Nc3ccc(F)c(F)c3)c2C(N)=O)C1 [Example 70, 2-[3-(3,4-Difluorophenyl)ureido]-6-ethyl-4,5,6,7-tetrahydrothieno[2,3-c]pyridine-3-carboxamide hydrochloride] | 1000 to 10000 nM | 64% | – |
| NC(=O)c1c(NC(=O)Nc2ccc(Cl)cc2)sc2c1CCN(CC1CC1)C2 [Example 1, 2-[3-(4-chlorophenyl)ureido]-6-(cyclopropylmethyl)-4,5,6,7-tetrahydrothieno[2,3-c]pyridine-3-carboxamide hydrochloride] | 1000 to 10000 nM | 92% | – |
| CCN1CCc2c(sc(NC(=O)Nc3ccc(Cl)cc3)c2C(=O)NCC(F)(F)F)C1 [Example 96, 2-[3-(4-Chlorophenyl)ureido]-6-ethyl-N-(2,2,2-trifluoroethyl)-4,5,6,7-tetrahydrothieno[2,3-c]pyridine-3-carboxamide hydrochloride] | 1000 to 10000 nM | – | Emax at 8.3 µM [1]: 57% |
| CCN1CCc2c(sc(NC(=O)NC3CCCCC3)c2C(N)=O)C1 [Example 68, 2-(3-Cyclohexylureido)-6-ethyl-4,5,6,7-tetrahydrothieno[2,3-c]pyridine-3-carboxamide hydrochloride] | – | 5% | – |
| C[N+]1(CC2CCC2)CCc2c(sc(NC(=O)Nc3ccc(Cl)c4ccccc34)c2C(N)=O)C1 (stereo not shown) [Example 182, 3-Carbamoyl-2-[3-(4-chloronaphthalen-1-yl)ureido]-6-(cyclobutylmethyl)-6-methyl-4,5,6,7-tetrahydrothieno[2,3-c]pyridin-6-ium chloride] | 1000 to 10000 nM | – | Emax at 83 µM (maximum observed @ 83 μM test compound, 200 micromolar neomycin, read-out: Max HC Protection (HCmax, % hair cell survival)): 76% |
| CC[N+]1(CCCC(=O)OC(C)(C)C)CCc2c(sc(NC(=O)Nc3ccc(Cl)cc3)c2C(N)=O)C1 (stereo not shown) [Example 198, 6-[4-(tert-Butoxy)-4-oxobutyl]-3-carbamoyl-2-[3-(4-chlorophenyl)ureido]-6-ethyl-4,5,6,7-tetrahydrothieno[2,3-c]pyridin-6-ium trifluoroacetate] | < 1000 nM | – | Emax at 2.8 µM [1]: 89% |
| CC(C)CN1CCc2c(sc(NC(=O)Nc3ccc(Cl)cc3)c2C(N)=O)C1 [Example 26, 2-[3-(4-Chlorophenyl)ureido]-6-isobutyl-4,5,6,7-tetrahydrothieno[2,3-c]pyridine-3-carboxamide hydrochloride] | 1000 to 10000 nM | – | Emax at 8.3 µM [1]: 68% |
| NC(=O)c1c(NC(=O)Nc2ccc(Cl)cc2)sc2c1CCC(=O)C2 [Example 91, 2-[3-(4-Chlorophenyl)ureido]-6-oxo-4,5,6,7-tetrahydrobenzo[b]thiophene-3-carboxamide] | – | – | Emax at 0.9 µM (maximum observed @ 0.9 μM test compound, 200 micromolar neomycin, read-out: Max HC Protection (HCmax, % hair cell survival)): 15% |
| C[N+]1(CC(F)(F)F)CCc2c(sc(NC(=O)Nc3ccc(Cl)cc3)c2C(N)=O)C1 (stereo not shown) [Example 192, 3-Carbamoyl-2-[3-(4-chlorophenyl)ureido]-6-methyl-6-(2,2,2-trifluoroethyl)-4,5,6,7-tetrahydrothieno[2,3-c]pyridin-6-ium iodide] | < 1000 nM | 88% | – |
| CC[N+]1(C)CCCc2c(sc(NC(=O)Nc3ccc(Cl)cc3)c2C(N)=O)C1 (stereo not shown) [Example 173, 3-Carbamoyl-2-[3-(4-chlorophenyl)ureido]-7-ethyl-7-methyl-5,6,7,8-tetrahydro-4H-thieno[2,3-c]azepin-7-ium iodide] | 1000 to 10000 nM | 102% | – |
| CCN1CCc2c(sc(NC(=O)Nc3ccc(Cl)cc3)c2C(=O)NCCN2CCOCC2)C1 [Example 100, 2-[3-(4-Chlorophenyl)ureido]-6-ethyl-N-(2-morpholinoethyl)-4,5,6,7-tetrahydrothieno[2,3-c]pyridine-3-carboxamide dihydrochloride] | 1000 to 10000 nM | 59% | – |
| CCOC(=O)c1c(Nc2c(Nc3ccc(Cl)cc3)c(=O)c2=O)sc2c1CCN(CC)C2 [Example 110, Ethyl 2-({2-[(4-chlorophenyl)amino]-3,4-dioxocyclobut-1-en-1-yl}amino)-6-ethyl-4,5,6,7-tetrahydrothieno[2,3-c]pyridine-3-carboxylate hydrochloride] | > 10000 nM | 69% | – |
| Cc1c(CN2CCOCC2)sc(NC(=O)Nc2ccc(Cl)cc2)c1C(N)=O [Example 86, 2-[3-(4-Chlorophenyl)ureido]-4-methyl-5-(morpholinomethyl)thiophene-3-carboxamide hydrochloride] | 1000 to 10000 nM | – | Emax at 8.3 µM [1]: 51% |
| NC(=O)c1c(NC(=O)Nc2ccc(Cl)cc2)sc2c1CCN(CCN1CCOCC1)C2 [Example 46, 2-[3-(4-Chlorophenyl)ureido]-6-(2-morpholinoethyl)-4,5,6,7-tetrahydrothieno[2,3-c]pyridine-3-carboxamide trifluoroacetate] | > 10000 nM | 79% | – |
| CC(C)(C)CN1CCc2c(sc(NC(=O)Nc3ccc(Cl)cc3)c2C(N)=O)C1 [Example 27, 2-[3-(4-Chlorophenyl)ureido]-6-neopentyl-4,5,6,7-tetrahydrothieno[2,3-c]pyridine-3-carboxamide hydrochloride] | 1000 to 10000 nM | 79% | – |
| CC(C)(C)OC(=O)CCC[N+]1(CC2CCC2)CCc2c(sc(NC(=O)Nc3ccc(Cl)cc3)c2C(N)=O)C1 (stereo not shown) [Example 199, 6-[4-(tert-Butoxy)-4-oxobutyl]-3-carbamoyl-2-[3-(4-chlorophenyl)ureido]-6-(cyclobutylmethyl)-4,5,6,7-tetrahydrothieno[2,3-c]pyridin-6-ium trifluoroacetate] | < 1000 nM | – | Emax at 0.3 µM (maximum observed @ 0.3 μM test compound, 200 micromolar neomycin, read-out: Max HC Protection (HCmax, % hair cell survival)): 68% |
| CN(C)C(=O)CCCN1CCc2c(sc(NC(=O)Nc3ccc(Cl)cc3)c2C(N)=O)C1 [Example 23, 2-[3-(4-Chlorophenyl)ureido]-6-[4-(dimethylamino)-4-oxobutyl]-4,5,6,7-tetrahydrothieno[2,3-c]pyridine-3-carboxamide hydrochloride] | – | – | Emax at 2.8 µM [1]: 43% |
| CC(C)(C)OC(=O)CCCN1CCc2c(sc(NC(=O)Nc3ccc(Cl)cc3)c2C(N)=O)C1 [Example 14, tert-Butyl 4-{3-carbamoyl-2-[3-(4-chlorophenyl)ureido]-4,5-dihydrothieno[2,3-c]pyridin-6(7H)-yl}butanoate] | < 1000 nM | – | Emax at 8.3 µM [1]: 83% |
| CCN1CCc2c(ccc(NC(=O)Nc3ccc(Cl)cc3)c2C(N)=O)C1 [Example 112, 6-[3-(4-chlorophenyl)ureido]-2-ethyl-1,2,3,4-tetrahydroisoquinoline-5-carboxamide hydrochloride] | – | 49% | – |
| CC(C)NC(=O)CCN1CCc2c(sc(NC(=O)Nc3ccc(Cl)cc3)c2C(N)=O)C1 [Example 57, 2-[3-(4-Chlorophenyl)ureido]-6-[3-(isopropylamino)-3-oxopropyl]-4,5,6,7-tetrahydrothieno[2,3-c]pyridine-3-carboxamide hydrochloride] | 1000 to 10000 nM | – | Emax at 2.8 µM [1]: 50% |
| CC[N+]1(C)C2CCC1c1sc(NC(=O)Nc3ccc(Cl)cc3)c(C(N)=O)c1C2 (racemic) [Example 187, (+/−)-3-Carbamoyl-2-[3-(4-chlorophenyl)ureido]-9-ethyl-9-methyl-5,6,7,8-tetrahydro-4H-thienocyclohepten-5,8-iminium chloride] | 1000 to 10000 nM | 72% | – |
| CC[N+]1(CC(C)C)CCc2c(sc(NC(=O)Nc3ccc(Cl)cc3)c2C(N)=O)C1 (stereo not shown) [Example 200, 3-Carbamoyl-2-[3-(4-chlorophenyl)ureido]-6-ethyl-6-isobutyl-4,5,6,7-tetrahydrothieno[2,3-c]pyridin-6-ium chloride] | < 1000 nM | – | Emax at 2.8 µM [1]: 97% |
| COC(=O)CCN1CCc2c(sc(NC(=O)Nc3ccc(Cl)cc3)c2C(N)=O)C1 [Example 55, Methyl 3-{3-carbamoyl-2-[3-(4-chlorophenyl)ureido]-4,5-dihydrothieno[2,3-c]pyridin-6(7H)-yl}propanoate] | – | – | Emax at 2.8 µM [1]: 17% |
| CC(C(=O)O)N1CCc2c(sc(NC(=O)Nc3ccc(Cl)cc3)c2C(N)=O)C1 (racemic) [Example 62, (+/−)-2-{3-Carbamoyl-2-[3-(4-chlorophenyl)ureido]-4,5-dihydrothieno[2,3-c]pyridin-6(7H)-yl}propanoic acid hydrochloride] | – | 29% | – |
| NC(=O)c1c(NC(=O)Nc2ccc(Cl)cc2)sc2c1CCN(CC(=O)O)C2 [Example 61, 2-{3-Carbamoyl-2-[3-(4-chlorophenyl)ureido]-4,5-dihydrothieno[2,3-c]pyridin-6(7H)-yl}acetic acid hydrochloride] | – | 24% | – |
